{"source": "patent US20040131692A1", "about": "“Nanoparticles made of protein with coupled apolipoprotein e for penetration of the blood-brain barrier and methods for the production thereof” (priority 2001, published 2004)", "system": "mice", "experiment": "tail-flick test, analgesic effect (nociceptive response) after intravenous injection", "format": "in vivo", "details": "i.v. dalargin 7.5 mg/kg, comparison data originate from an earlier experiment", "protocol": "The preparation was applied to mice […] at a dosage of 7.5 mg/kg of dalargin. This corresponds to an application amount of 200 μl of the aforementioned preparation per mouse, based on an average body weight of a mouse of 20 g.\nThe analgesic effect (nociceptive response) was determined by the tail-flick test, in which a hot beam of light is projected onto the tail of the mouse and the time until the mouse draws away its tail is measured. After 10 seconds (=100% MPE) the experiment was truncated so as not to cause injury to the mouse. The maximally possible analgesic effect (MPE) was determined in accordance with the following formula: [formula]\nNegative MPE values result if after administration of the administration the mouse draws away its tail before the treatment.\nWith the aid of dalargin-loaded avidin-modified HSA nanoparticles the analgesic effects indicated in Table 1 were obtained after intravenous injection."}
{"substance": "dalargin [Dalargin solution]", "values": [{"measurement": "Analgesic effect [% MPE]", "setting": "30 min", "result": "10.0 ± 9.8", "unit": "% MPE"}, {"measurement": "Analgesic effect [% MPE]", "setting": "45 min", "result": "9.3 ± 2.8", "unit": "% MPE"}, {"measurement": "Analgesic effect [% MPE]", "setting": "90 min", "result": "4.7 ± 5.1", "unit": "% MPE"}, {"measurement": "Analgesic effect [% MPE]", "setting": "120 min", "result": "2.0 ± 6.1", "unit": "% MPE"}]}
